Measured values taken from ChEMBL document CHEMBL1201862, “PubChem BioAssay data set” (2004).
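Five compound concentrations were applied to cells in 96-well plates for 48 hours; endpoints were derived by simple linear interpolation of the resulting dose-response curve. At the GI50, growth is halved.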 The source made the active and inactive calls. No stated cut-off is given here; in the data, active = GI50 up to about 1.1 µM and inactive = higher.

Experiments:
Experiment in all cases: NCI-60 cell line screen, 48 h
[1] = system: M14
[2] = system: COLO 205
[3] = system: LXFL 529
[4] = system: EKVX
[5] = system: NCI-H460
[6] = system: ACHN
[7] = system: U-251
[8] = system: HCT-15
[9] = system: A549
[10] = system: HCC 2998
[11] = system: 786-0
[12] = system: HT-29
[13] = system: OVCAR-5
[14] = system: LOX IMVI
[15] = system: MDA-MB-231
[16] = system: DU-145
[17] = system: UO-31
[18] = system: KM12
[19] = system: CAKI-1
[20] = system: MCF7

| Compound | GI50 [1] | GI50 [2] | GI50 [3] | GI50 [4] | GI50 [5] | GI50 [6] | GI50 [7] | GI50 [8] [µM] | GI50 [9] | GI50 [10] | GI50 [11] | GI50 [12] | GI50 [13] | GI50 [14] | GI50 [15] | GI50 [16] | GI50 [17] | GI50 [18] | GI50 [19] | GI50 [20] |
| --- | --- | --- | --- | --- | --- | --- | --- | --- | --- | --- | --- | --- | --- | --- | --- | --- | --- | --- | --- | --- |
| CC1(C)OCC(CO)(Nc2nc(N3CC3)nc(N3CC3)n2)CO1 | 9.2 µM (inactive) | 20.3 µM (inactive) | 24.5 µM (inactive) | 32 µM (inactive) | 0.38 µM (active) | 1.42 µM (inactive) | 4.04 µM (inactive) | 15.2 | 4.05 µM (inactive) | 16.9 µM (inactive) | 3.88 µM (inactive) | 13.9 µM (inactive) | 20 µM (inactive) | 5.52 µM (inactive) | > 10 µM (inactive) | 1.3 µM (inactive) | 8.95 µM (inactive) | 16.3 µM (inactive) | 1.52 µM (inactive) | – |
| NC(=O)C(=O)n1ncc(Cl)c(Cl)c1=O | 28.8 µM (inactive) | > 32.9 µM (inactive) | 15.1 µM (inactive) | 39.2 µM (inactive) | 74.8 µM (inactive) | 24.4 µM (inactive) | > 40.7 µM (inactive) | > 46.9 | > 67.8 µM (inactive) | 25.8 µM (inactive) | 22.2 µM (inactive) | 27.5 µM (inactive) | 37.5 µM (inactive) | 22.4 µM (inactive) | > 10 µM (inactive) | > 100 µM (inactive) | 32.7 µM (inactive) | 34.1 µM (inactive) | 22.8 µM (inactive) | 57.3 µM (inactive) |
| Cc1cccc2c1CCC21OC(=O)c2c1ccc1ccccc21 (stereo not drawn) | 23.7 µM (inactive) | 47 µM (inactive) | 47.6 µM (inactive) | 68.5 µM (inactive) | 42.2 µM (inactive) | 79.1 µM (inactive) | 45.8 µM (inactive) | 35.6 | > 100 µM (inactive) | 29.4 µM (inactive) | 83.9 µM (inactive) | 35.3 µM (inactive) | 88.5 µM (inactive) | 54.8 µM (inactive) | – | – | 47.4 µM (inactive) | 56.9 µM (inactive) | 34.5 µM (inactive) | – |
| COc1ccc(C(=O)C/C(=N/NC(N)=S)C(=O)Nc2ccccc2)cc1 | > 100 µM (inactive) | > 100 µM (inactive) | 97.7 µM (inactive) | > 100 µM (inactive) | > 100 µM (inactive) | > 100 µM (inactive) | > 100 µM (inactive) | > 100 | > 100 µM (inactive) | > 100 µM (inactive) | > 100 µM (inactive) | > 100 µM (inactive) | > 100 µM (inactive) | > 100 µM (inactive) | – | – | > 100 µM (inactive) | > 100 µM (inactive) | > 100 µM (inactive) | – |
